Read-outs that look alike come from different tables or passages of the source.
Legend:
[1] = system: Escherichia coli expressing NDM-1 (CLB30005, CLB30016); type: cell-based; settings: with imipenem 1 μg/ml, 95% inhibition of bacterial growth; for Escherichia coli MITC95: NDM-1 (CLB30016)
Outline: (§1)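 Restoration of imipenem susceptibility (1 μg/ml imipenem) was judged by absorbance after 22–24 h at 35° C. Test compound was added to bacteria suspended 1:100 in 1.1× CAMHB from overnight blood-agar cultures.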

[2] = system: Serratia marcescens expressing IMP-1 (CL5741); type: cell-based; settings: with imipenem 1 μg/ml, 95% inhibition of bacterial growth; for Serratia marcescens MITC95: IMP-1 (CL5741)
Outline: as §1

[3] = system: Klebsiella pneumoniae expressing VIM-1 (IHMA599644); type: cell-based; settings: with imipenem 1 μg/ml, 95% inhibition of bacterial growth; for Klebsiella pneumoniae MITC95: VIM-1 (IHMA599644)
Outline: as §1

IMP-1 = IMP-1 (Serratia marcescens, UniProt P52699); experiment: biochemical; type: biochemical; settings: CCF2-FA substrate, 2 hours at 25° C; read-out: IMP-1 IC50
Chain of IMP-1 (P52699 whole entry, looked up, species assumed): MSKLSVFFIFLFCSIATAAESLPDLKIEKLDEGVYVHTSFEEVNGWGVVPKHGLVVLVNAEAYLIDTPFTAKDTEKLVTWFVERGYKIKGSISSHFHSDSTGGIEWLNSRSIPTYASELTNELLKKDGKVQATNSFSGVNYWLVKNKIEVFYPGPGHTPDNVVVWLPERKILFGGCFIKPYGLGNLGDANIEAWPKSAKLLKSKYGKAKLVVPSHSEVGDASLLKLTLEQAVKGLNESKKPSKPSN
Outline: (§2)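 IC50 values derive from 4-parameter fits of percent inhibition against inhibitor concentration on semi-log axes. Activity was monitored by fluorescence with the CCF2-FA substrate after a 2-hour, 25° C incubation of compound, enzyme and substrate.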

NDM-1 = NDM-1 (Klebsiella pneumoniae, UniProt C7C422); experiment: biochemical; type: biochemical
Chain of NDM-1 (C7C422 whole entry, looked up, species assumed): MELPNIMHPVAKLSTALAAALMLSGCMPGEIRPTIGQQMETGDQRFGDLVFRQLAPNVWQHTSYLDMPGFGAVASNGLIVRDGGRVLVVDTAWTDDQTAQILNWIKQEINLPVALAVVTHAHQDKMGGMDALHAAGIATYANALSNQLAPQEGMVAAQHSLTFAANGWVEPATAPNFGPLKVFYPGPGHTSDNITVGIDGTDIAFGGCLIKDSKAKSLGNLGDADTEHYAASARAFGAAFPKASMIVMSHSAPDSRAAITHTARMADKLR
Outline: as §2

[4] = system: P. aeruginosa expressing IMP-1, efflux− (MB9799); experiment: Efflux: concentration of MBL inhibitor which restores susceptibility to imipenem; type: cell-based, Pseudomonas aeruginosa; settings: imipenem at 2 μg/mL, in the presence of a class A, C, D serine β-lactamase inhibitor closely related to relebactam
Text: (§3) The strain background is Pseudomonas aeruginosa PAO1.

[5] = system: P. aeruginosa expressing IMP-1, efflux+ (MB9798); type: cell-based, Pseudomonas aeruginosa; settings: for P. aeruginosa expressing IMP-1, efflux+ (MB9798) MITC95: imipenem at 2 μg/mL, in the presence of a class A, C, D serine β-lactamase inhibitor closely related to relebactam; for Efflux ratio: ratio MITC95 PA_9798/MITC95 PA_9799
Text: as §3

VIM-1 = VIM-1 (Pseudomonas aeruginosa (strain ATCC 15692 / DSM 22644 / CIP 104116 / JCM 14847 / LMG 12228 / 1C / PRS 101 / PAO1), UniProt A0A0F7KYQ8); experiment: biochemical; settings: CCF2-FA substrate, 2 hours at 25° C
Outline: as §2

[6] = CCF2-FA substrate, 2 hours at 25° C, read-out: NDM-1 IC50

Compound	Escherichia coli MITC95 [1] [µM]	Serratia marcescens MITC95 [2] [µM]	Klebsiella pneumoniae MITC95 [3] [µM]	IC50 (IMP-1) [nM]	IC50 (NDM-1) [nM]	P. aeruginosa expressing IMP-1, efflux− (MB9799) MITC95 [4] [µM]	P. aeruginosa expressing IMP-1, efflux+ (MB9798) MITC95 [5] [µM]	Efflux ratio [5]	IC50 (VIM-1) [nM]	IC50 (NDM-1; [6]) [nM]	Escherichia coli expressing NDM-1 (CLB30016) MITC95 [1] [µM]	Serratia marcescens expressing IMP-1 (CL5741) MITC95 [2] [µM]	Klebsiella pneumoniae expressing VIM-1 (IHMA599644) MITC95 [3] [µM]
NCCS(=O)(=O)c1ccc(-c2cccc3[nH]c([C@H](N)CN)nc23)c(-c2nn[nH]n2)c1S(N)(=O)=O [Example 327, (R)-6-((2-Aminoethyl)sulfonyl)-3-(2-(1,2-diaminoethyl)-1H-benzo[d]imidazol-4-yl)-2-(2H-tetrazol-5-yl)benzenesulfonamide]	1.563	3.125	3.125	2.23	1.02	1.563	3.125	2.00	0.455	–	–	–	–
NCCNC(=O)c1ccccc1-c1ccc(S(=O)(=O)CCN)c(S(N)(=O)=O)c1-c1nn[nH]n1 [Example 342, N-(2-Aminoethyl)-4′-((2-aminoethyl)sulfonyl)-3′-sulfamoyl-2′-(2H-tetrazol-5-yl)-[1,1′-biphenyl]-2-carboxamide]	1.563	3.125	1.563	34.2	–	3.125	12.5	4.00	2.84	15.3	–	–	–
NCCNC(=O)c1cccc(-c2ccc(S(=O)(=O)C3CNC3)c(S(N)(=O)=O)c2-c2nn[nH]n2)c1N [Example 288, 2-amino-N-(2-aminoethyl)-4′-(azetidin-3-ylsulfonyl)-5′-sulfamoyl-6′-(2H-tetrazol-5-yl)biphenyl-3-carboxamide]	3.125	3.125	1.563	9.83	–	0.7813	3.125	4.00	0.861	1.67	–	–	–
Nc1nc2c(-c3ccc(SC4CNC4)c(S(N)(=O)=O)c3-c3nn[nH]n3)cccc2[nH]1 [Example 2, 3-(2-amino-1H-benzo[d]imidazol-4-yl)-6-(azetidin-3-ylthio)-2-(2H-tetrazol-5-yl)benzenesulfonamide]	–	–	–	75.8	–	1.281	6.25	4.88	73.7	2.24	0.5	1.781	6.25
C[C@@H](N)CS(=O)(=O)c1ccc(-c2cccc3[nH]c(N)nc23)c(-c2nn[nH]n2)c1S(N)(=O)=O [Example 267, 3-(2-amino-1H-benzo[d]imidazol-4-yl)-6-((R)-2-aminopropylsulfonyl)-2-(2H-tetrazol-5-yl)benzenesulfonamide]	0.3906	0.7813	1.563	0.964	–	0.7813	0.7813	1.00	0.517	0.213	–	–	–
Nc1n[nH]c2ccc(-c3ccc(S(=O)(=O)C4CNC4)c(S(N)(=O)=O)c3-c3nnn[nH]3)cc12 [Example 264, 3-(3-amino-1H-indazol-5-yl)-6-(azetidin-3-ylsulfonyl)-2-(1H-tetrazol-5-yl) benzenesulfonamide]	3.125	1.563	3.125	1.82	–	0.7813	6.25	8.00	0.175	0.364	–	–	–
Cc1nnc2ccc(-c3ccc(S(=O)(=O)CCN)c(S(N)(=O)=O)c3-c3nnn[nH]3)cn12.O=C(O)C(F)(F)F [Example 133, 2-((4-(3-methyl-[1,2,4]triazolo[4,3-a]pyridin-6-yl)-2-sulfamoyl-3-(1H-tetrazol-5-yl)phenyl)sulfonyl)ethanaminium 2,2,2-trifluoroacetate]	–	–	–	29.4	–	3.125	200	64.00	0.968	15.6	6.25	6.25	6.25

Reference: US10227331B2 (priority 2015, dated 2019)
